Like-named read-outs stand apart in the source and are kept apart here.
How the values were obtained:
[1] = biological target: GSK3b (GST-full length GSK3b) (Homo sapiens (Human), UniProt P49841); experiment: GSK3b TR-FRET kinase assay; type: biochemical
How it was run: (§1)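 IC50 came from the normalized 665/615 nm TR-FRET ratio plotted against log compound concentration. The Tb-labelled pSer641 antibody and streptavidin-d2 detected phosphorylation of biotinylated S645-primed glycogen synthase peptide (200 nM) by 1 nM full-length GST-kinase. ATP was 4 μM for α, 2 μM for β, or 1 mM.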

[2] = biological target: GSK3α (GST-full length GSK3α) (Homo sapiens (Human), UniProt P49840); experiment: GSK3α TR-FRET kinase assay; type: biochemical
How it was run: as §1

[3] = 1 nM GSK3b, 2 μM ATP, 30 minute preincubation, Table 16, read-out: GSK3-B TR-FRET BIOCHEMICAL (TR-FRET)
[4] = read-out: GSK3-B (TR-FRET 1 mM ATP), GMean, IC50, 1 mM ATP, geometric mean
[5] = 1 nM GSK3α, 4 μM ATP, 30 minute preincubation, Table 16, read-out: GSK3-A TR-FRET BIOCHEMICAL (TR-FRET)
[6] = read-out: GSK3-A (TR-FRET 1 mM ATP), GMean, IC50, 1 mM ATP, geometric mean
[7] = 1 nM GSK3b, 2 μM ATP, 30 minute preincubation, geometric mean, read-out: GSK3-B TR-FRET BIOCHEMICAL (TR-FRET), GMean, IC50
[8] = 1 nM GSK3α, 4 μM ATP, 30 minute preincubation, geometric mean, read-out: GSK3-A TR-FRET BIOCHEMICAL (TR-FRET), GMean, IC50
[9] = 1 nM GSK3b, 2 μM ATP, 30 minute preincubation, read-out: GSK3-B TR-FRET BIOCHEMICAL (TR-FRET), IC50
[10] = 1 nM GSK3α, 4 μM ATP, 30 minute preincubation, read-out: GSK3-A TR-FRET BIOCHEMICAL (TR-FRET), IC50
[11] = 1 nM GSK3b, 2 μM ATP, 30 minute preincubation, Table 16, read-out: GSK3-B TR-FRET BIOCHEMICAL (TR-FRET), IC50
[12] = 1 nM GSK3α, 4 μM ATP, 30 minute preincubation, Table 16, read-out: GSK3-A TR-FRET BIOCHEMICAL (TR-FRET), IC50
[13] = GSK3-B (TR-FRET 1 mM ATP), GMean, IC50, 1 mM ATP, geometric mean
[14] = GSK3-A (TR-FRET 1 mM ATP), GMean, IC50, 1 mM ATP, geometric mean

Sequence of GSK3α (GST-full length GSK3α) (P49840 whole entry): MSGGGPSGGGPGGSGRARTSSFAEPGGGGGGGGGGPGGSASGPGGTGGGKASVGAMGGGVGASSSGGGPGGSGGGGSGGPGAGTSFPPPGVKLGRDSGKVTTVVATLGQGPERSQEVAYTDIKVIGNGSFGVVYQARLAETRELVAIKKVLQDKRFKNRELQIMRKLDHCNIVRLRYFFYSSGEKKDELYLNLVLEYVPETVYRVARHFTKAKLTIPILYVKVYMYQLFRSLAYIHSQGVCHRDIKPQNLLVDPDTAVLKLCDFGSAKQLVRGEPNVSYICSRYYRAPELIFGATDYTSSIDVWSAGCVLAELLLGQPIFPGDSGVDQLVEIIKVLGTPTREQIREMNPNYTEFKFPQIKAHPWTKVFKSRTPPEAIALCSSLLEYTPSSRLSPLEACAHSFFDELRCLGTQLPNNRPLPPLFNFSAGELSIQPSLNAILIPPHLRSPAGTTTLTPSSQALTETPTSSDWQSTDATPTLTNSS
Sequence of GSK3b (GST-full length GSK3b) (P49841 whole entry): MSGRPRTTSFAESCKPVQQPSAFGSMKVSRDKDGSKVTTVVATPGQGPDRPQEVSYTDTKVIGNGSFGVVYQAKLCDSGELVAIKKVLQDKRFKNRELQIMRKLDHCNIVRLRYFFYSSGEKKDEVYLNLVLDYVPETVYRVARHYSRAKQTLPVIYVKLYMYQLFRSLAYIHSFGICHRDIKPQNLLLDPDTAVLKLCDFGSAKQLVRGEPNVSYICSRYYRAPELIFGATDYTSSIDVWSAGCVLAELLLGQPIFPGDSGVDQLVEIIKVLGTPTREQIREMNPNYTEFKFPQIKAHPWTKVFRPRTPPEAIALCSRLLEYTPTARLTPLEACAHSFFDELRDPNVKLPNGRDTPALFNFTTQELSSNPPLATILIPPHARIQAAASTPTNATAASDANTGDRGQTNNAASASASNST

Compound: CCN(c1cccc(C2(CC)C3=C(CC(C)(C)CC3=O)Nc3n[nH]cc32)c1)c1ncccn1 (stereo not shown) [Compound 947333]
- IC50 [1, 3]: ≤ 100 nM
- IC50 [1, 4]: 100 to 1000 nM
- IC50 [2, 5]: ≤ 100 nM
- IC50 [2, 6]: ≤ 100 nM

Compound: CCC1(c2cccc(C(F)(F)F)c2)C2=C(CCN(c3cncnc3)C2=O)Nc2n[nH]cc21 (stereo not shown) [Compound 948380]
- IC50 [1, 7]: > 5000 nM
- IC50 [2, 8]: 100 to 1000 nM

Compound: CC1(C)CC(=O)C2=C(C1)Nc1n[nH]cc1[C@@]21CO[C@@H](c2ccccc2)C1 [Compound 946073]
- IC50 [1, 3]: 100 to 1000 nM
- IC50 [2, 5]: ≤ 100 nM

Compound: Cc1csc(S(=O)(=O)N2CCC3(CC2)C2=C(CC(C)(C)CC2=O)Nc2n[nH]cc23)n1 [Compound 947897]
- IC50 [1, 3]: ≤ 100 nM
- IC50 [2, 5]: ≤ 100 nM

Compound: CC1(C)CC(=O)C2=C(C1)Nc1n[nH]cc1C21COC2(CN(C(=O)C(C)(F)F)C2)C1 (stereo not shown) [Compound 947275]
- IC50 [1, 9]: ≤ 100 nM
- IC50 [1, 4]: 100 to 1000 nM
- IC50 [2, 10]: ≤ 100 nM
- IC50 [2, 6]: 100 to 1000 nM

Compound: CC[C@@]1(c2cccc(C(F)(F)F)c2)C2=C(CCN(c3ccc(C)cc3)C2=O)Nc2n[nH]cc21 [Compound 949118]
- IC50 [1, 7]: 100 to 1000 nM
- IC50 [2, 8]: ≤ 100 nM

Compound: CC[C@]1(c2cccc(C(F)F)c2)C2=C(CC(C)(C)NC2=O)Nc2n[nH]c(C(F)(F)F)c21 [Compound 951946]
- IC50 [1, 11]: 1000 to 5000 nM
- IC50 [2, 12]: 100 to 1000 nM

Compound: CCC1(c2cccc(C3CCOC(C)(C)C3)c2)C2=C(CC(C)(C)CC2=O)Nc2n[nH]cc21 (stereo not shown) [Compound 912089]
- IC50 [1, 11]: 100 to 1000 nM
- IC50 [2, 12]: 100 to 1000 nM

Compound: CCN(c1cccc([C@@]2(CC)C3=C(CC(C)(C)CC3=O)Nc3n[nH]cc32)c1)c1ncccn1 [Compound 947334]
- IC50 [1, 3]: 1000 to 5000 nM
- IC50 [2, 5]: 100 to 1000 nM

Compound: CC[C@@]1(c2cccc(-c3ccnc4c3CCCC4)c2)C2=C(CC(C)(C)CC2=O)Nc2n[nH]cc21 [Compound 944036]
- IC50 [1, 3]: > 5000 nM
- IC50 [2, 5]: 1000 to 5000 nM

Compound: CC[C@]1(c2ccccc2)C2=C(C[C@]3(CCNC3=O)CC2=O)Nc2n[nH]cc21 [Compound 950165]
- IC50 [1, 3]: > 5000 nM
- IC50 [2, 5]: > 5000 nM

Compound: CC(C)(C)Cc1[nH]nc2c1C1(CCN(c3ccccc3)CC1)C1=C(CC(C)(C)CC1=O)N2 [Compound 92315]
- IC50 [1, 4]: > 5000 nM
- IC50 [2, 6]: > 5000 nM

Compound: CCC1(c2cccc(-c3ccnc(CCO)c3)c2)C2=C(CC(C)(C)CC2=O)Nc2n[nH]cc21 (stereo not shown) [Compound 945992]
- IC50 [1, 3]: 100 to 1000 nM
- IC50 [2, 5]: ≤ 100 nM

Compound: CC1(C)CC(=O)C2=C(C1)Nc1n[nH]cc1[C@]21CCN(S(=O)(=O)c2cccc(F)c2)C1 [Compound 951861]
- IC50 [1, 9]: ≤ 100 nM
- IC50 [1, 13]: 100 to 1000 nM
- IC50 [2, 10]: ≤ 100 nM
- IC50 [2, 14]: 100 to 1000 nM

Compound: CCCn1nccc1-c1cccc(C2(CC)C3=C(CC(C)(C)CC3=O)Nc3n[nH]cc32)c1 (stereo not shown) [Compound 946093]
- IC50 [1, 3]: ≤ 100 nM
- IC50 [1, 4]: 100 to 1000 nM
- IC50 [2, 5]: ≤ 100 nM
- IC50 [2, 6]: ≤ 100 nM

Compound: CC[C@]1(c2cccc(-c3ccnc4c(C)cccc34)c2)C2=C(CC(C)(C)NC2=O)Nc2n[nH]cc21 [Compound 952909]
- IC50 [1, 11]: 100 to 1000 nM
- IC50 [2, 12]: ≤ 100 nM

Compound: CC1(C)CC(=O)C2=C(C1)Nc1n[nH]cc1C21Cc2ccccc21 (stereo not shown) [Compound 917226]
- IC50 [1, 11]: 100 to 1000 nM
- IC50 [2, 12]: 100 to 1000 nM

Compound: CC[C@H]1C[C@@]2(CCO1)C1=C(CC(C)(C)CC1=O)Nc1n[nH]cc12 [Compound 907329]
- IC50 [1, 11]: 1000 to 5000 nM
- IC50 [2, 12]: 100 to 1000 nM

Compound: CC[C@]1(c2cccc(Oc3ncccn3)c2)C2=C(CC(C)(C)NC2=O)Nc2n[nH]cc21 [Compound 949330]
- IC50 [1, 11]: 100 to 1000 nM
- IC50 [2, 12]: ≤ 100 nM

Compound: Cc1ccc(CC(=O)N2CC3(C2)CC2(CO3)C3=C(CC(C)(C)CC3=O)Nc3n[nH]cc32)cc1 (stereo not shown) [Compound 947281]
- IC50 [1, 9]: ≤ 100 nM
- IC50 [1, 4]: 100 to 1000 nM
- IC50 [2, 10]: ≤ 100 nM
- IC50 [2, 6]: 100 to 1000 nM

Compound: CCC1(c2cccc(C(F)F)c2)C2=C(CC(C)(C)CC2=O)Nc2n[nH]c(C(F)(F)F)c21 (stereo not shown) [Compound 945710]
- IC50 [1, 3]: ≤ 100 nM
- IC50 [1, 4]: ≤ 100 nM
- IC50 [2, 5]: ≤ 100 nM
- IC50 [2, 6]: ≤ 100 nM

Compound: CCC1(c2cccc(C(F)(F)F)c2)C2=C(CCCNC2=O)Nc2n[nH]cc21 (stereo not shown) [Compound 913355]
- IC50 [1, 3]: > 5000 nM
- IC50 [2, 5]: > 5000 nM

Compound: CC[C@]1(c2cccc(-c3cncn3C)c2)C2=C(CC(C)(C)NC2=O)Nc2n[nH]cc21 [Compound 947820]
- IC50 [1, 7]: 100 to 1000 nM
- IC50 [2, 8]: 100 to 1000 nM

Compound: CCC1(c2cccc(S(=O)(=O)C3CCCCC3)c2)C2=C(CC(C)(C)CC2=O)Nc2n[nH]cc21 (stereo not shown) [Compound 918273]
- IC50 [1, 11]: ≤ 100 nM
- IC50 [2, 12]: ≤ 100 nM

Compound: COC[C@H]1C[C@]2(C1)C1=C(CC(C)(C)CC1=O)Nc1n[nH]cc12 [Compound 912173]
- IC50 [1, 3]: 100 to 1000 nM
- IC50 [2, 5]: 100 to 1000 nM

Compound: CC1(C)CC(=O)C2=C(Nc3n[nH]cc3C23CCCCC3)[C@@H]1F [Compound 951705]
- IC50 [1, 3]: ≤ 100 nM
- IC50 [2, 5]: ≤ 100 nM

Compound: CCC1(c2cccc(-c3cnn(C)c3)c2)C2=C(Nc3n[nH]cc31)C(F)C(C)(C)CC2=O (stereo not shown) [Compound 957504]
- IC50 [1, 3]: 1000 to 5000 nM
- IC50 [1, 4]: > 5000 nM
- IC50 [2, 5]: 100 to 1000 nM

Compound: CCC1(c2cccc(-c3ccnc4cc(F)c(F)cc34)c2)C2=C(CC(C)(C)NC2=O)Nc2n[nH]cc21 (stereo not shown) [Compound 948638]
- IC50 [1, 7]: > 5000 nM
- IC50 [2, 8]: > 5000 nM

Compound: CCC1(c2cccc(-c3ccnc(OC)c3C)c2)C2=C(CC(C)(C)CC2=O)Nc2n[nH]cc21 (stereo not shown) [Compound 932628]
- IC50 [1, 11]: 100 to 1000 nM
- IC50 [2, 12]: ≤ 100 nM

Compound: CCC1(c2cccc(-c3ccn(C)n3)c2)C2=C(CC(C)(C)CC2=O)Nc2n[nH]c(C)c21 (stereo not shown) [Compound 883999]
- IC50 [1, 11]: ≤ 100 nM
- IC50 [2, 12]: ≤ 100 nM

Compound: CC1(C)CC(=O)C2=C(C1)Nc1n[nH]cc1C21COC2(CN(C(=O)C3CCC(F)(F)C3)C2)C1 (stereo not shown) [Compound 947265]
- IC50 [1, 9]: 100 to 1000 nM
- IC50 [2, 10]: ≤ 100 nM

Compound: CC1(C)CC(=O)C2=C(C1)Nc1n[nH]cc1[C@]21COC2(CCC2)C1 [Compound 917128]
- IC50 [1, 9]: 100 to 1000 nM
- IC50 [2, 10]: 100 to 1000 nM

Compound: CC1(C)CC(=O)C2=C(C1)Nc1n[nH]cc1C21CCN(S(=O)(=O)c2ccccc2OC(F)F)CC1 [Compound 945668]
- IC50 [1, 9]: ≤ 100 nM
- IC50 [1, 13]: 100 to 1000 nM
- IC50 [2, 10]: ≤ 100 nM
- IC50 [2, 14]: ≤ 100 nM

Compound: CC[C@]1(c2cccc(-c3c(C)cnn3C)c2)C2=C(CC(C)(C)NC2=O)Nc2n[nH]cc21 [Compound 952021]
- IC50 [1, 11]: ≤ 100 nM
- IC50 [1, 4]: > 5000 nM
- IC50 [2, 12]: ≤ 100 nM
- IC50 [2, 6]: 100 to 1000 nM

Compound: CC[C@@]1(c2cccc(-c3c(C)nn(C)c3C)c2)C2=C(CC(C)(C)NC2=O)Nc2n[nH]cc21 [Compound 947413]
- IC50 [1, 7]: > 5000 nM
- IC50 [2, 8]: 1000 to 5000 nM

Compound: CC[C@@]1(c2ccccc2)C2=C(C[C@@]3(CCOC3)CC2=O)Nc2n[nH]cc21 [Compound 816884]
- IC50 [1, 7]: 1000 to 5000 nM
- IC50 [2, 8]: 100 to 1000 nM

Compound: CC[C@@]1(c2cccc(-c3ccncc3C3CC3)c2)C2=C(CC(C)(C)NC2=O)Nc2n[nH]cc21 [Compound 948642]
- IC50 [1, 7]: 1000 to 5000 nM
- IC50 [2, 8]: 100 to 1000 nM

Compound: CC[C@]1(c2cccc(N3C[C@H](C)[C@@H](C)C3)c2)C2=C(CC(C)(C)CC2=O)Nc2n[nH]cc21 [Compound 924520]
- IC50 [1, 11]: > 5000 nM
- IC50 [2, 12]: > 5000 nM

Compound: CCC1(c2cccc(-c3nc(C)ncc3C)c2)C2=C(CC(C)(C)CC2=O)Nc2n[nH]cc21 (stereo not shown) [Compound 948091]
- IC50 [1, 3]: 100 to 1000 nM
- IC50 [2, 5]: ≤ 100 nM

Compound: CC[C@]1(c2cccc(-c3cnn(C)c3C)c2)C2=C(CC(C)(C)NC2=O)Nc2n[nH]cc21 [Compound 945608]
- IC50 [1, 9]: 100 to 1000 nM
- IC50 [2, 10]: ≤ 100 nM
